# Laboratory results as given in patent US20130072404A1, “APPARATUS AND PROCESSES FOR GENERATING VARIABLE CONCENTRATION OF SOLUTES IN MICRODROPLETS” (UNIVERSITE DE STRASBOURG, priority 2009, published 2013).
# Tests used:
# Format in all cases: biochemical
# β-galactosidase [1] = target: T1, β-galactosidase (Escherichia coli, UniProt P00722); test: Standard microplate assay (Example 1 comparison values); design: purchased Sigma-Aldrich Co; conditions: read-out: KM of RBG measured in a standard microplate assay
# β-galactosidase [2] = target: T1, β-galactosidase; test: Droplet microfluidic KM measurement, on-chip dilution system (Example 1e); design: purchased Sigma-Aldrich Co; conditions: 75 s droplet incubation, Michaelis-Menten fit, read-out: KM of RBG in the enzyme/substrate system
# Method: In the examples, the model systems comprised an enzyme, a substrate, and an inhibitor for IC50 measurements and an enzyme and substrate alone for KM measurements. In all cases the enzyme was β-galactosidase (Sigma-Aldrich Co.), the substrate was resorufin β-D-galactopyranoside (RBG; Invitrogen Corporation), and the inhibitor was phenylethyl β-D-thiogalactopyranoside (PETG; Invitrogen Corporation).
# An aqueous phase of 520 μM RBG (the substrate), 100 μM sodium fluorescein, and 5% (v/v) DMSO in PBS were injected into the ‘compound’ input of the microfluidic device (FIG. 4) at a flow rate of 111 μl/hr. A second aqueous phase, 5% (v/v) DMSO in PBS, was injected into the ‘diluent’ input at a flow rate of 389 μl/hr. […]
# A series of microdroplets were created containing RBG (and sodium fluorescein) at different concentrations: from zero to 260 μM (50 μM sodium fluorescein) and then from 260 μM to zero. […] The amounts of fluorescent resorufin (liberated by β-galactosidase activity) and sodium fluorescein were measured for each droplet by monitoring fluorescence intensity in the 590-625 and 500-520 nm channels, respectively.
# A Michaelis-Menten curve was fitted to the points using the DRC package in R (FIG. 8). […] This value compares favorably to the value measured in a standard microplate assay: 115.6 μM (95% confidence intervals: 102.7-128.6 μM).
# PTP1B = target: T2, PTP1B (Homo sapiens, UniProt P18031); test: Microplate dose-response assay, PTP1B
# T2 construct: purchased EMD Biosciences, Inc
# T2 sequence (P18031 1-435): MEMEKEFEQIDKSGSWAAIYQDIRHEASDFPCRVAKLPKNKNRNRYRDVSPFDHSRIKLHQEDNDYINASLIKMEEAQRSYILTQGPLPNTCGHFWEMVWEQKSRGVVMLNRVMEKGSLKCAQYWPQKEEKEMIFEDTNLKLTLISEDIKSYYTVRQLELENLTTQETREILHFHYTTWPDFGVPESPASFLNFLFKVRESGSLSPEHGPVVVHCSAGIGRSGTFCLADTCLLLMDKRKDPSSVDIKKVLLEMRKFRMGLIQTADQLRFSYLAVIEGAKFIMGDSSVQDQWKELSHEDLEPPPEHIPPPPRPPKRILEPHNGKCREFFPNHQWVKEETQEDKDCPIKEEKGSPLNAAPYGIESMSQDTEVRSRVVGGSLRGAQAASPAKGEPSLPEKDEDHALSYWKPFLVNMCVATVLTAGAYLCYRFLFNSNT
# Method: For PTP1B, the same approach was used with the following alterations: the inhibitor was diluted in 50 mM HEPES pH 7.2; the solution of enzyme was 10 mg/l PTP1B (EMD Biosciences, Inc., California, USA) in 50 mM HEPES pH 7.2 containing 2 mM DTT, 2 mM EDTA, and 2 g/l BSA; and the solution of substrate was 68 μM FDP in 50 mM HEPES pH 7.2.
# [3] = target: T3, protein tyrosine phosphatase 1B (PTP1B) (Homo sapiens, UniProt P18031); test: High-resolution dose-response screening of PTP1B with a chemical library in droplets, FDP substrate
# T3 construct: purchased EMD Biosciences, Inc
# T3 sequence (P18031 1-435): T2 sequence (P18031 1-435)
# Method: High-resolution dose-response screening of PTP1B inhibition was performed in a similar manner to the screening of β-galactosidase inhibition (see above), but with the following changes: 50 mM HEPES pH 7.2 was used in place of PBS; the enzyme solution was 20 mg/l PTP1B in 50 mM HEPES pH 7.2 containing 4 mM DTT, 4 mM EDTA, and 4 g/l BSA; and the substrate solution was 68 μM FDP in 50 mM HEPES pH 7.2. In place of the 96-well plate were two 384-well plates containing 704 compounds comprising a subset of the Prestwick Chemical Library® (FIG. 21). These plates were prepared by diluting 1 μl aliquots of the compounds in pure DMSO to 10 μl of 240 μM concentration in 50 mM HEPES pH 7.2 by serial dilution. The compounds occupied columns 1 to 22 of each plate, while the wells in column 23 contained 10 μl of 240 μM sodium suramin (in the same buffer) and the wells in column 24 contained 10 μl of buffer alone.
# Injections were performed as described above. […] In this case the dispersion coefficients were assumed to be identical and the compound concentration in each droplet was calculated by assuming a linear correlation between NIR fluorescence and compound concentration.
# T1 sequence (P00722 2-1024 limits assumed): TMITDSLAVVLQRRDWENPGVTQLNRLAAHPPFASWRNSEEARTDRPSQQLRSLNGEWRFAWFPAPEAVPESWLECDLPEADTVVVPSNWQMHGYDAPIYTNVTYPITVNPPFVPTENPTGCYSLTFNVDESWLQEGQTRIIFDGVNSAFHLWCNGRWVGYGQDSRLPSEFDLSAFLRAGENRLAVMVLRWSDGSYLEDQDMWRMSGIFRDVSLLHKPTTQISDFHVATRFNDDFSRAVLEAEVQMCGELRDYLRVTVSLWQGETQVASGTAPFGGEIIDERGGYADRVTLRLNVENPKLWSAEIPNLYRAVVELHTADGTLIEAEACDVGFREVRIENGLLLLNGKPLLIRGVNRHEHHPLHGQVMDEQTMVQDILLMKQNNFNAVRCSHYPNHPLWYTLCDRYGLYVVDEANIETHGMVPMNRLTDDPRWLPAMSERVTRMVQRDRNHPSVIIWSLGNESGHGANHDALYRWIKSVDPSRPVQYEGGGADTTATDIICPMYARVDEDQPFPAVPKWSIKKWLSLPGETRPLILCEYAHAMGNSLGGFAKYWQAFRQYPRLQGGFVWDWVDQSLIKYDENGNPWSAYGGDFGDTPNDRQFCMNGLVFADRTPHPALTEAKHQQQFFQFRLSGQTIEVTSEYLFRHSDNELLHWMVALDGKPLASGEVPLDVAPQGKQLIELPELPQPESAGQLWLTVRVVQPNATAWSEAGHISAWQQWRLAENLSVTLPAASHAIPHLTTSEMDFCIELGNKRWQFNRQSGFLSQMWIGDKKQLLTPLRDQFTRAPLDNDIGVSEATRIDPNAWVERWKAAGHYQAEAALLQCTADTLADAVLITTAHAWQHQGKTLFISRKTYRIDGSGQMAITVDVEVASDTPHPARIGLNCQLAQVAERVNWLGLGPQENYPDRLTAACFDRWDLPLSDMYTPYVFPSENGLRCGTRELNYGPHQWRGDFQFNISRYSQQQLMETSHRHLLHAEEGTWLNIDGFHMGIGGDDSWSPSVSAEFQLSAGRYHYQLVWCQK
SMILES,Km (β-galactosidase [1]),Km (β-galactosidase [2]),confirmation of activity in microplate (PTP1B),effect on PTP1B in high-resolution dose-response curves ([3]; droplets),"IC50 ([3]; droplets, 4-parameter Hill fit)",inhibition ([3]; 50 μM droplets)
"O=c1ccc2nc3ccc(O[C@@H]4O[C@H](CO)[C@H](O)[C@H](O)[C@H]4O)cc3oc-2c1 [RBG, resorufin β-D-galactopyranoside]",116 µM,446 µM,–,–,–,–
O=C(O)c1cc(-c2ccc(F)cc2F)ccc1O [diflunisal],–,–,confirmed in microplate,weak activator,–,–
Cn1cc[nH]c1=S [methimazole],–,–,not confirmed in microplate,weak inhibitor,–,–
NC(=O)c1cc[n+](CC2=C(C(=O)[O-])N3C(=O)[C@@H](NC(=O)[C@@H](c4ccccc4)S(=O)(=O)[O-])[C@H]3SC2)cc1.[Na+] [sodium cefsulodine],–,–,confirmed in microplate,strong inhibition of PTP1B,33 µM,–
Cc1ccc(C(=O)Nc2ccc(S(=O)(=O)[O-])c3cc(S(=O)(=O)[O-])cc(S(=O)(=O)[O-])c23)cc1NC(=O)c1cccc(NC(=O)Nc2cccc(C(=O)Nc3cc(C(=O)Nc4ccc(S(=O)(=O)[O-])c5cc(S(=O)(=O)[O-])cc(S(=O)(=O)[O-])c45)ccc3C)c2)c1.[Na+].[Na+].[Na+].[Na+].[Na+].[Na+] [sodium suramin],–,–,confirmed in microplate,activate PTP1B at low concentrations (<10 μM) and inhibit it at higher concentrations,–,89.9%
